Experiment [1] relates to Pam3CSK4 (TLR2)-stimulated human monocytes (primary CD14+). Briefly: IL-12/23p40 ELISA, Pam3CSK4 (TLR2)-stimulated monocytes. The format is cell-based. The settings on record: 1 hour pretreatment, 24 hour 300 ng/ml Pam3CSK4, ELISA of supernatant. Here is the method: Human monocytes were obtained as described in Example 9 and FIG. 9A-9B. Human monocytes were seeded (10^6/ml) and pretreated for 1 hour with VB-201, VB-701 or VB-702, followed by 24 hour activation with 100 ng/ml LPS from Escherichia coli strain 055:B5 (Sigma, Israel) (FIG. 9A) or 300 ng/ml Pam3CSK4 (InvivoGen, San Diego, Calif., USA) (FIG. 9B) to induce cytokine production. IL-12/23p40 concentration in the supernatant was then measured by ELISA (R&D systems, Cat. No. DY1240). Cells activated with solvent (0.5% ethanol in PBS) were used as a control.

Experiment [2] relates to RANTES-induced signaling in human monocytes (primary CD14+). Briefly: RANTES-induced signaling, western blot. The format is cell-based. The settings on record: RANTES 100 ng/ml for 15 minutes. On the procedure:
Cells (10^6/ml) were pretreated for 20 min with VB-201 (1-hexadecyl-2-(4′-carboxy)butyl-glycero-3-phosphocholine or 1-hexadecyl-2-(4′-carboxybutyl)-glycerol-3-phosphocholine) or VB-701 at the doses indicated in FIG. 2, or with solvent (Sol), followed by 15 min activation with 100 ng/ml lipopolysaccharide (LPS) or were untreated (Unt). Cells were washed and resuspended in lysis buffer containing 1:100 dithiothreitol (DTT), phosphatase and protease inhibitors (Thermo Scientific). Samples were loaded onto a precast Criterion TGX gel (Bio-Rad, Hemel Hempstead, UK) and transferred onto nitrocellulose membrane. Blots were blocked with 5% milk or BSA in Tris buffered saline and Tween 20 (TBST) for 1 h, followed by incubation with primary and secondary antibodies. Membranes were developed using an ECL kit (Thermo Scientific). The following antibodies were used for immunoblotting:
Human monocytes were obtained, treated and analyzed by western blot as described in Example 9 and FIG. 7, except that cells were induced with RANTES (100 ng/ml; Cat. No. 300-06, PeproTech, Israel) for 15 minutes. […] Accordingly, VB-702 and VB-201 inhibit RANTES-induced signaling in human monocytes (primary CD14+).

The next experiment deals with nephrectomized rats. Briefly: 5/6 nephrectomy chronic renal disease rat model (focal and segmental glomerulosclerosis). The format is in vivo, Sprague Dawley (SD) Rats. Here is the method:
Male Sprague Dawley (SD) Rats (Harlan Laboratories, Israel) with an initial weight of 200 g were housed 2-3 per cage in IVC cages in dedicated HVAC (heat, ventilation, air conditioning animal facility at a temperature of 22±2° C. and RH (relative humidity) of 55±15%). Temperature and humidity were monitored continuously. The facility had no exposure to outside light and was maintained on automatic alternating cycles of 12 hours of light and 12 hours of dark. Animals were provided with a commercial rodent diet (Harlan Teklad TRM Rat/Mouse Diet) ad libitum and allowed free access to autoclaved water, supplied to each cage via polysulphone bottles with stainless steel sipper tubes. All animal work was approved by the Animal Care and Use Committee of Israel (IL-13-03-027).
Rats were divided into three groups: (1) Healthy rats (n=3) in group A, (2) Sham group—subjected to chirurgical process but without kidney mass reduction (n=3) in group B, and (3) the rest were induced with chronic renal failure (n=32). Chronic renal failure was induced by a two stage (5/6) nephrectomy (Nx), with subtraction firstly of about ⅔ of the left kidney by left flank incision and, one week later, complete removal of the right kidney. General anesthesia consisted of intraperitoneal injection of ketamine 100 mg/kg and xylazine 20 mg/kg (0.85 ml ketamine+0.15 ml xylazine for each ml preparation; 1 μl/g BW was injected I.P).
One week following the second surgery, rats were randomly assigned to the following experimental groups:
Nephrectomized, orally administered with VB-703 4 mg/kg (n=8); and
Nephrectomized, orally administered with telmisartan 10 mg/kg as positive control (n=8).
Body weight (BW) was monitored throughout the study and rats were treated by oral gavage according to their body weight for 7 weeks. Rats were sacrificed by CO2 inhalation 8 weeks from removal of the right kidney (2nd surgery).
Proteinuria and albuminuria was determined in urine specimens, collected during a 24-hour period, from animals housed in cages at 4 weeks (3 w of treatment) and 8 weeks (7 w of treatment) after the subtotal nephrectomy (2nd surgery). Urine samples were analyzed for: glucose, urea, sodium, potassium, creatinine, total protein, and albumin.
Upon sacrifice, at 8 weeks, kidneys were collected, weighed and fixed in 4% formaldehyde.
For light microscopy, paraffin-embedded tissue slides of 4 μm were stained with Periodic Acid-Schiff (PAS) reagent, Masson's Trichrome and Hematoxylin & Eosin.
Glomerular sclerosis index. Glomerulosclerosis was assessed by PAS-stained sections using a semiquantitative scoring system. The extent of glomerulosclerosis was evaluated by examining mostly 100 randomly selected glomeruli at a magnification of ×400 and applying a score system according to the percentage of sclerosed glomerular area. The score was graded from 0 to 4: (0=0% area; 1=1-25%; 2=26-50%, 3=51-75%, 4=76% and above). The mean of all scored glomeruli was presented. Moreover, the extent of global and segmental glomerulosclerosis was evaluated in the same glomeruli, where <80% sclerosis was referred to as segmental and >80% was referred to as global.
Glomerular area. The glomerular area of mostly 100 randomly selected glomeruli at a magnification of ×100 was quantitated by counting squares covered by glomeruli area using a grid and the mean glomeruli area was calculated.
Renal tissues were fixed in 4% formaldehyde and embedded in paraffin. The paraffin-embedded tissues were then cut to form tissue slides of 4 μm. Immunohistochemistry of the paraffin-embedded tissue slides was analyzed using antibodies in the following concentration: monoclonal mouse anti rat CD-68 (ED-1, Serotec MCA341) 1:25. For quantitation of interstitial CD68+ staining, the number of positive cells was counted in 20 randomly selected non-overlapping fields per animal, and the mean value was presented. […]

Setting [3] is: Nx rats, VB-703 4 mg/kg, Telmisartan 10 mg/kg, 8 weeks, Mean ± S.E.
Setting [4] is: VB-703 4 mg/kg, telmisartan 10 mg/kg, oral 7 weeks, vs Nx PBS 0.5% Eth.

`CCCCCCCCCCCCCCCCOCC(COP(=O)([O-])OCC[N+](C)(C)C)OCCCCC(=O)O` (stereo not drawn) [VB-201, 1-hexadecyl-2-(4′-carboxy)butyl-glycero-3-phosphocholine, reference compound]: the “IL-12p40 levels, Pam3CSK4 (TLR2)-stimulated” value in experiment [1] was “inhibit”. Moreover, in experiment [2], the “formation of p-ERK induced by RANTES” value is given as “inhibit”.

As to `CCCCCCCCCCC(CCCCCCCC)COC[C@H](COP(=O)([O-])OCC[n+]1ccccc1)OCCCCC(=O)O` (stereo partly drawn) [VB-703, (R)-1-(2′-octyl)dodecyl-2-(4′-carboxy)butyl-sn-glycero-3-phosphoric acid pyridiniumethyl ester], in the experiment on nephrectomized rats (setting [3]), the “Glomerular sclerosis Global %” value is 1.9 ± 1.55%, the “Glomerular sclerosis Global & Segmental %” value was 24.7 ± 3.77% and the “Glomerular sclerosis Segmental %” value is reported as 22.9 ± 2.83%. Besides, the urinary albumin/creatinine/day ratio entry with nephrectomized rats (VB-703 4 mg/kg oral, at the termination of the study (8 weeks)) is “significantly improved”. Besides, the “glomerular and interstitial monocyte/macrophage infiltration (CD68 positive cells)” value in the experiment on nephrectomized rats (VB-703 4 mg/kg, telmisartan 10 mg/kg, 8 weeks) is on record as “did not produce a significant effect”. Moreover, in the experiment on nephrectomized rats (setting [4]), the “reduction of damaged glomeruli percent” value is on record as 38% and the “reduction of sclerotic glomeruli” value was determined as 49%.

These data come from patent US10464957B2, “Oxidized lipids and methods of use thereof” (Vascular Biogenics Ltd., priority 2014, dated 2019).
